According to ChEMBL document CHEMBL4419165, “Fibcd1 for the prevention and treatment of diseases” (2014):
Calls of active or inactive are those of the source. The rule behind the calls is not given here.

Key:
[1] = biological target: T1, Fibrinogen C domain-containing protein 1 (Homo sapiens) (UniProt Q8N539); assay: Binding affinity to V5-His tagged FIBCD1 ecto-domain (54 to 461 residues) (unknown origin) assessed as reduction in binding between FIBCD1 and acetylated BSA by ELISA relative to control
T1 sequence (whole entry): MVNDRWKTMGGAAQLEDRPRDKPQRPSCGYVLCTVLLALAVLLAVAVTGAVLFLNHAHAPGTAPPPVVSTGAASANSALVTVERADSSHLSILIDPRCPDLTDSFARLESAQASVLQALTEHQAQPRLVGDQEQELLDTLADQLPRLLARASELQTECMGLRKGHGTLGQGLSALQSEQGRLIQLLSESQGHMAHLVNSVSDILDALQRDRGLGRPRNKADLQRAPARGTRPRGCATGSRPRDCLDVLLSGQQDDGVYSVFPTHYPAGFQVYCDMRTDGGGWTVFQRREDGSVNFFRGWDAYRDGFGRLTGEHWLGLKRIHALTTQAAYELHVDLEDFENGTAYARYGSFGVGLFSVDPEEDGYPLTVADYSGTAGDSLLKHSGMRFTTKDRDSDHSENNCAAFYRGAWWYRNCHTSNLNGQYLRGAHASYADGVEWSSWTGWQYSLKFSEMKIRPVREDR

[2] = biological target: T1, Fibrinogen C domain-containing protein 1 (Homo sapiens); assay: Binding affinity to V5-His tagged FIBCD1 ecto-domain (54 to 461 residues) (unknown origin) assessed as reduction in binding between FIBCD1 and acetylated BSA at 50 mM by ELISA relative to control
[3] = biological target: T1, Fibrinogen C domain-containing protein 1 (Homo sapiens); assay: Binding affinity to V5-His tagged FIBCD1 ecto-domain (54 to 461 residues) (unknown origin) expressed in HEK293 cells assessed as reduction in binding between FIBCD1 and acetylated BSA by ELISA; type: cell-based
[4] = biological target: T1, Fibrinogen C domain-containing protein 1 (Homo sapiens); assay: Binding affinity to V5-His tagged FIBCD1 ecto-domain (54 to 461 residues) (unknown origin) expressed in CHO cells assessed as reduction in endocytosis of [125I]Acetylated BSA by measuring degraded acetylated BSA level measured up to 4 hrs; type: cell-based

Compound | Ratio [1] | inhibition [2] | I50 [3] | Activity [4]
CC(=O)O | 0.7 | – | – | –
CC(=O)OCC[N+](C)(C)C | 0.2 | – | – | –
CCCC(=O)O | – | < 50% | inactive | –
CCN(CC)CCCC(C)Nc1ccnc2cc(Cl)ccc12 (stereo not given) | – | – | – | Active

Next, values leading:

Ratio [1] | inhibition [2] | I50 [3] | Activity [4] | Compound
– | < 50% | inactive | – | OC[C@H]1OC(O)[C@H](O)[C@@H](O)[C@@H]1O (stereo not given in full)
– | < 50% | inactive | – | CCC(=O)O
0.4 | – | – | – | CC(=O)N[C@@H]1[C@@H](O)[C@@H](O)[C@@H](CO)O[C@@H]1O
– | < 50% | inactive | – | OC[C@H]1OC(O)[C@@H](O)[C@@H](O)[C@@H]1O (stereo not given in full)
– | < 50% | inactive | – | O=C[C@H](O)[C@@H](O)[C@@H](O)[C@H](O)CO
1 | – | – | – | N[C@H]1[C@H]([C@H](O)[C@H](O)CO)OC(O)(C(=O)O)C[C@@H]1O (stereo not given in full)
